Data as given in patent US9034873B2, “Pyridazine and pyrrole compounds, processes for obtaining them and uses” (Centre National de la Recherche Scientifique (C.N.R.S.), priority 2006, dated 2015).
Values after ≈ are worked out from the molar mass of the structure shown. Where two headings read alike, the source gives them in different places.

Tests used:
[1] = system: KB, Caco, Huh7 and fibroblast cells; assay: Cancer cell model: in vitro test on KB, Caco, Huh7 and fibroblast cells; format: cell-based
Candida albicans = assay: Parasitology: activity against Candida albicans; format: cell-based
Leishmania mexicana = assay: Parasitology: activity against Leishmania mexicana; format: cell-based
Aspergillus fumigatus = assay: Parasitology: activity against Aspergillus fumigatus; format: cell-based; conditions: for IC80: IC80 stated in the cell
Cytotoxicity on KB cells = format: cell-based; conditions: human
[2] = system: Leishmania mexicana amastigotes; assay: Activity against Leishmania mexicana, amastigotes; format: cell-based; conditions: amastigote stage; for IC50: Leishmania mexicana, read-out: Activity against Leishmania mexicana (IC50 μg/ml) amastigotes
[3] = system: Leishmania mexicana promastigotes; assay: Activity against Leishmania mexicana, promastigotes; format: cell-based; conditions: for IC50: Leishmania mexicana, read-out: Activity against Leishmania mexicana (IC50 μg/ml) promastigotes, promastigote stage
Sub7 (liver) = assay: IC50 of the referent molecules on Sub7 (liver) cells; format: cell-based
Caco (colon) = assay: IC50 of the referent molecules on Caco (colon) cells; format: cell-based
Fibroblast (skin) = assay: IC50 of the referent molecules on Fibroblast (skin) cells; format: cell-based
tonB protein = tonB protein (Escherichia coli, UniProt P02929); assay: Effect on tonB protein (iron transport used for bacterial growth); conditions: tonB protein involved in the iron transport process used for bacterial growth
[4] = read-out: Parasitology IC50 or 80 Candida albicans μM
[5] = read-out: Parasitology IC50 or 80 Candida albicans μg/mL
[6] = read-out: Parasitology IC50 or 80 Leishmania mexicana μM
[7] = read-out: Parasitology IC50 or 80 Leishmania mexicana μg/mL
[8] = KB cells, read-out: KB cells Cytotoxicity IC50 μM
[9] = 24 h, read-out: IC50 μM Sub7 (liver) 24 h
[10] = 48 h, read-out: IC50 μM Sub7 (liver) 48 h
[11] = 24 h, read-out: IC50 μM Caco (colon) 24 h
[12] = 48 h, read-out: IC50 μM Caco (colon) 48 h
[13] = Fibroblast, 24 h, read-out: IC50 μM Fibroblast (skin) 24 h
[14] = Fibroblast, 48 h, read-out: IC50 μM Fibroblast (skin) 48 H

Chain of tonB protein (P02929 whole entry): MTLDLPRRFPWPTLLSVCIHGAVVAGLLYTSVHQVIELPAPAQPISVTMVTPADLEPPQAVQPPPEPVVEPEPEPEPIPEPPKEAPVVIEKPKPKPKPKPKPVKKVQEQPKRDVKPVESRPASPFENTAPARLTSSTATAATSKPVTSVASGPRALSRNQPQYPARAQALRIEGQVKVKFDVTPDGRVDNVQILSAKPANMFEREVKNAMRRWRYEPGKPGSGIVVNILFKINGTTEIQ

For c1ccc(-c2ccc(Sc3ccc(-c4ccccn4)nn3)nn2)nc1 [Compound 11, di(6-pyridin-2-yl)pyridazine thioether], the “cytotoxic activity in a cancer cell model” value (“cytotoxic activity” for short) [1] was “very high cytotoxic activity”, the IC50 (Candida albicans; [4]) was 99 µM and the IC50 (Candida albicans; [5]) was 24.2 µg/mL. The IC50 (Leishmania mexicana; [6]) was 3 µM and the IC50 (Leishmania mexicana; [7]) was 8.73 µg/mL.

c1ccc(-c2ccc(-c3cccc(-c4ccc(-c5ccccn5)nn4)n3)nn2)nc1 [Compound 33, 2,6-bis[6-(pyridin-2-yl)pyridazin-3-yl]-pyridine] gave an IC80 (Aspergillus fumigatus; read-out: Aspergillus fumigatus IC80 μM) of 32 µM, an IC80 (Aspergillus fumigatus; read-out: Aspergillus fumigatus IC80 μg/mL) of 9.26 µg/mL and an IC50 (Cytotoxicity on KB cells; [8]) of 6.27 µM. It also gave an IC50 (Cytotoxicity on KB cells; KB cells, read-out: KB cells Cytotoxicity IC50 μg/mL) of 1.81 µg/mL, an IC50 (Candida albicans; [4]) of 6.4 µM and an IC50 (Candida albicans; [5]) of 1.85 µg/mL. For the same compound, the IC50 (Leishmania mexicana; [6]) was 0.19 µM and the IC50 (Leishmania mexicana; [7]) was 0.05 µg/mL.

O=c1ccc(-c2cccc(-c3ccc(=O)[nH]n3)n2)n[nH]1 [Compound 36, 2,6-bis(3-oxo-2H-pyridazin-6-yl)pyridine] gave an IC50 (Cytotoxicity on KB cells; [8]) of 2.6 µM, an IC50 (Candida albicans; [4]) greater than 100 µM and an IC50 (Candida albicans; [5]) greater than 26.7 µg/mL. The IC50 (Leishmania mexicana; [6]) was 41 µM and the IC50 (Leishmania mexicana; [7]) was 11 µg/mL.

Work on c1ccc(-c2ccc(-c3ccc4ccc5ccc(-c6ccc(-c7ccccn7)nn6)nc5c4n3)nn2)nc1 [Compound 66, 2,9-bis[6-(pyridin-2-yl)pyridazin-3-yl][1,10]phenanthroline] yielded an IC50 (Candida albicans; [4]) greater than 100 µM, an IC50 (Candida albicans; [5]) of no less than 49.1 µg/mL and an IC50 (Leishmania mexicana; [6]) of 16 µM. The IC50 (Leishmania mexicana; [7]) was 7.84 µg/mL.

For CCCCCCCCCCCCCCCCOP(=O)([O-])OCC[N+](C)(C)C [Miltefosine], the IC50 [2] was 1.42 ± 0.14 µg/mL (≈ 3.48 µM), the IC50 [3] was greater than 2 µg/mL and the “Activity against Leishmania mexicana (IC50 μg/ml) promastigotes” value ([3]; promastigote stage) was greater than 2 µg/mL.

Compound O=c1[nH]cc(F)c(=O)[nH]1 [Compound 5FU, 5FU] has an IC50 (Sub7 (liver); [9]) greater than 25 µM, an IC50 (Sub7 (liver); [10]) greater than 25 µM and an IC50 (Caco (colon); [11]) of 0.5 µM. The IC50 (Caco (colon); [12]) was 0.5 µM, the IC50 (Fibroblast (skin); 48 H, read-out: IC50 μM Fibroblast (skin) 48 H) was greater than 25 µM and the IC50 (Fibroblast (skin); 24 h, read-out: IC50 μM Fibroblast (skin) 24 h) was greater than 25 µM.

For C=C(OCC)c1ccc(-c2ccc(C(=C)OCC)nn2)nn1 [Compound 24, 6,6′-di(1-ethoxyvinyl)-3,3′-bipyridazine], the “cytotoxic activity” value [1] was “very high cytotoxic activity”, the IC50 (Cytotoxicity on KB cells; KB cancer cells, text of Example 2, read-out: cytotoxic potential on KB cancer cells, IC50) was 0.3 µg/mL and the “effect on the tonB protein” value (tonB protein) was “affects the tonB protein”.

With c1ccc(-c2ccc(Oc3ccc(-c4ccccn4)nn3)nn2)nc1 [Compound 9, di(6-pyridin-2-yl)pyridazine ether] the IC50 (Aspergillus fumigatus; cell does not say IC50 or IC80, read-out: Parasitology IC50 or 80 Aspergillus fumigatus μM) was greater than 100 µM, the IC50 (Aspergillus fumigatus; cell does not say IC50 or IC80, read-out: Parasitology IC50 or 80 Aspergillus fumigatus μg/mL) was greater than 22.8 µg/mL and the IC50 (Candida albicans; [4]) was greater than 100 µM. For the same compound, the IC50 (Candida albicans; [5]) was greater than 22.8 µg/mL, the IC50 (Leishmania mexicana; [6]) was greater than 100 µM and the IC50 (Leishmania mexicana; [7]) was greater than 22.8 µg/mL.

COc1cccc2c1C(=O)c1c(O)c3c(c(O)c1C2=O)C[C@@](O)(C(=O)CO)C[C@@H]3O[C@H]1C[C@H](N)[C@H](O)[C@H](C)O1 [Doxorubicine] showed an IC50 (Sub7 (liver); [9]) of 0.4 µM, an IC50 (Sub7 (liver); [10]) of 0.04 µM and an IC50 (Caco (colon); [11]) of 1 µM. It also gave an IC50 (Caco (colon); [12]) of 0.06 µM, an IC50 (Fibroblast (skin); [13]) of 2 µM and an IC50 (Fibroblast (skin); [14]) of 1 µM.

CC(=O)O[C@H]1C(=O)[C@@]2(C)[C@H]([C@H](OC(=O)c3ccccc3)[C@]3(O)C[C@H](OC(=O)[C@H](O)[C@@H](NC(=O)c4ccccc4)c4ccccc4)C(C)=C1C3(C)C)[C@]1(OC(C)=O)CO[C@@H]1C[C@@H]2O [Taxol] showed an IC50 (Sub7 (liver); [9]) of 0.01 µM, an IC50 (Sub7 (liver); [10]) of less than 0.01 µM and an IC50 (Caco (colon); [11]) of 0.01 µM. The IC50 (Caco (colon); [12]) was less than 0.008 µM, the IC50 (Fibroblast (skin); [13]) was greater than 25 µM and the IC50 (Fibroblast (skin); [14]) was greater than 25 µM.

For Cc1cccc(-c2ccc(-c3cccc(-c4ccc(-c5cccc(C)n5)nn4)n3)nn2)n1 [Compound 49, 2,6-bis[6-(6-methylpyridin-2-yl)pyridazin-3-yl)pyridine], the “cytotoxic activity” value [1] was “very high cytotoxic activity”.

CC[C@H](CO)Nc1nc(NCc2ccccc2)c2ncn(C(C)C)c2n1 [Roscovitine] gave an IC50 (Fibroblast (skin); [13]) greater than 25 µM and an IC50 (Fibroblast (skin); [14]) greater than 25 µM.

For O=C(O)c1cccc(-c2ccc(-c3cccc(-c4ccc(-c5cccc(C(=O)O)n5)nn4)n3)nn2)n1 [Compound 50, 2,6-bis[3-(2-carboxypyridin-6-yl)pyridazin-6-yl]pyridine], the “cytotoxic activity” value [1] was “very high cytotoxic activity”, the IC50 (Candida albicans; [4]) was 63 µM and the IC50 (Candida albicans; [5]) was 30.1 µg/mL. For the same compound, the IC50 (Leishmania mexicana; [6]) was 8 µM and the IC50 (Leishmania mexicana; [7]) was 3.8 µg/mL.

Compound CC(=O)N1CCN(c2ccc(OCC3COC(Cn4ccnc4)(c4ccc(Cl)cc4Cl)O3)cc2)CC1 (stereo not shown) [Ketoconazole] has an IC50 [2] of 1.3 ± 0.2 µg/mL (≈ 2.45 µM) and an IC50 [3] of roughly 0.3 µg/mL (≈ 0.565 µM).

With S=c1ccc(-c2ccccn2)n[nH]1 [Compound 10, 6-(pyridin-2-yl)-2H-pyridazine-3-thione] the “cytotoxic activity” value [1] was “very high cytotoxic activity”.

In the case of C[C@@H]1[C@H](O)[C@@H](C)/C=C/C=C/C=C/C=C/C=C/C=C/C=C/[C@H](O[C@@H]2O[C@H](C)[C@@H](O)[C@H](N)[C@@H]2O)C[C@@H]2O[C@](O)(C[C@@H](O)C[C@@H](O)[C@H](O)CC[C@@H](O)C[C@@H](O)CC(=O)O[C@H]1C)C[C@H](O)[C@H]2C(=O)O [Amphotericin B], the “Activity against Leishmania mexicana (IC50 μg/ml) amastigotes” value [2] is reported as 0.47 ± 0.05 µg/mL.
